Experimental data reported in patent US8557796B2, “Substituted 1-oxa-2,8-diaza-spiro [4,5] dec-2-ene derivatives and related treatment methods” (Gruenenthal GmbH, priority 2001, dated 2013).

Tests used:
5HT-uptake = target: T1, 5HT-uptake (Rattus norvegicus, UniProt P31652); assay: Serotonin uptake inhibition (5HT uptake) in synaptosomes; format: biochemical; details: rat brain synaptosomes
T1 construct: synaptosomes from rat brain regions were freshly isolated; from tissue; host or cells: P2 synaptosome fraction from rat brain regions
T1 sequence (P31652 whole entry): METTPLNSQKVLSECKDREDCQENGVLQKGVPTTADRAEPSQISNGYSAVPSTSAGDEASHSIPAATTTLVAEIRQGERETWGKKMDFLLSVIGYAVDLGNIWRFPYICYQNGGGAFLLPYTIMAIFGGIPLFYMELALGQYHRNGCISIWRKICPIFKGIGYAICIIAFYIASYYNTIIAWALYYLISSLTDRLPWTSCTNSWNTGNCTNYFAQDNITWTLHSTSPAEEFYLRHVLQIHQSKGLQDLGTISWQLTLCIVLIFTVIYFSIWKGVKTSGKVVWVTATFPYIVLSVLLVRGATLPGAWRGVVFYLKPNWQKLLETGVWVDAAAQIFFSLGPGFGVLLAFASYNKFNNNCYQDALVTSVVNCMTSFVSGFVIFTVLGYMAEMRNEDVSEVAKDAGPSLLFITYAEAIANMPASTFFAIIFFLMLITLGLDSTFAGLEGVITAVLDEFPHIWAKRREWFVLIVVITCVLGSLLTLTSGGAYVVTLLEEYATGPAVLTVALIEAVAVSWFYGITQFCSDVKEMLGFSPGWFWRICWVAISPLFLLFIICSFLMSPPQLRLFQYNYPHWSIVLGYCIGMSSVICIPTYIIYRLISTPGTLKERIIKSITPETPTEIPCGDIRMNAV
Source text: Tests on Serotonin Uptake (5HT Uptake Inhibition)

NA transporter = target: T2, NA transporter (Rattus norvegicus, UniProt Q9WTR4); assay: Noradrenalin uptake inhibition (NA-uptake) in synaptosomes; format: biochemical; details: rat hypothalamus synaptosomes
T2 construct: synaptosomes from rat brain regions were freshly isolated; from tissue; host or cells: P2 synaptosome fraction from hypothalamus of male rat brain
T2 sequence (Q9WTR4 1-597): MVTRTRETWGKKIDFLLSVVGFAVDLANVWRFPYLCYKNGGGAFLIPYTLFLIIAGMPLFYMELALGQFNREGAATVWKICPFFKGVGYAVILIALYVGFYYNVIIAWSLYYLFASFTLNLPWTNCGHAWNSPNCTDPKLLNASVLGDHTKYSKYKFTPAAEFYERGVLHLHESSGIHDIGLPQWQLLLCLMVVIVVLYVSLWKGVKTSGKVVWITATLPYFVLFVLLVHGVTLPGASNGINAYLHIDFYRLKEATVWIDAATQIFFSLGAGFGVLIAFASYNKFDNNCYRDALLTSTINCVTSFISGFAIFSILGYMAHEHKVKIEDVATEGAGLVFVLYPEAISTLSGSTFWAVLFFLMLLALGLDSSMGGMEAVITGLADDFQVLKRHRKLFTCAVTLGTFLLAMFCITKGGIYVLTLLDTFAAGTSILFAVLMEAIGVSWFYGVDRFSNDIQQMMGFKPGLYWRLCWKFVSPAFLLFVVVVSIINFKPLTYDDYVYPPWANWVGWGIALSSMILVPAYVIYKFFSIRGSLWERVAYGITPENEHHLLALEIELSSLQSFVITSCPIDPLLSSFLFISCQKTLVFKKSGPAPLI
Source text: Tests on Noradrenalin Uptake Inhibition (NA-Uptake Inhibition)
In order to be able to carry out these in vitro studies, synaptosomes from rat brain regions were freshly isolated.

Compound | inhibition at 10 µM (5HT-uptake) [%] | also measured
CCSCCNC(=O)C1=NOC2(CCN(C(=O)c3ccc(Br)cc3)CC2)C1 [Example 154] | – | 5HT-uptake, 10 μM, % inhibition (5HT-uptake): 48%
CN(C)S(=O)(=O)N1CCC2(CC1)CC(C(=O)NCCc1ccc(Cl)cc1)=NO2 [Example 58, 8-dimethylsulphamoyl-1-oxa-2,8-diaza-spiro[4,5]dec-2-ene-3-carboxylic acid [2-(4-chlorophenyl)-ethyl]-amide] | 55 | –
O=C(NCc1cccs1)C1=NOC2(CCN(C(=O)c3ccccc3Cl)CC2)C1 [Example 152, 8-(2-chloro-benzoyl)-1-oxa-2,8-diaza-spiro[4,5]dec-2-ene-3-carboxylic acid (thiophen-2-ylmethyl)-amide] | 41 | –
COc1ccc(OC)c(CN(Cc2ccco2)C(=O)C2=NOC3(CCN(S(=O)(=O)c4ccc(F)cc4)CC3)C2)c1 [Example 160] | – | 5HT-uptake, 10 μM, % inhibition (5HT-uptake): 50%
O=C(C1=NOC2(CCN(S(=O)(=O)c3cccc(C(F)(F)F)c3)CC2)C1)N1CCN(Cc2ccc3ccccc3c2)CC1 [Example 35, (4-naphthalen-2-ylmethyl-piperazin-l-yl)-[8-(3-trifluoromethyl-benzenesulphonyl)-1-oxa-2,8-diaza-spiro[4,5]dec-2-en-3-yl]-methanone] | – | 5HT-uptake, 10 μM, % inhibition (5HT-uptake): 44%
COc1ccc(CNC(=O)C2=NOC3(CCN(S(=O)(=O)c4cc(Cl)ccc4Cl)CC3)C2)cc1OC [Example 68, 8-(2,5-dichloro-benzenesulphonyl)-1-oxa-2,8-diaza-spiro[4,5]dec-2-ene-3-carboxylic acid 3,4-dimethoxy-benzylamide] | 52 | –
O=C(C1=NOC2(CCN(S(=O)(=O)Cc3ccccc3)CC2)C1)N1CCN(c2ccc(Cl)cc2)CC1 [Example 46, [4-(4-chloro-phenyl)-piperazin-1-yl]-(8-phenylmethane-sulphonyl-1-oxa-2,8-diaza-spiro[4,5]dec-2-en-3-yl)-methanone] | 40 | –
COCCOCC(=O)N1CCC2(CC1)CC(C(=O)NCc1ccccc1)=NO2 [Example 87, 8-[2-(2-methoxy-ethoxy)-acetyl]-1-oxa-2,8-diaza-spiro[4,5]dec-2-ene-3-carboxylic acid benzylamide] | 40 | –
COc1cc(OC)cc(N2CCN(C(=O)C3=NOC4(CCN(S(=O)(=O)c5ccc(Cl)s5)CC4)C3)CC2)c1 [Example 71, [8-(5-chloro-thiophene-2-sulphonyl)-1-oxa-2,8-diaza-spiro[4,5]dec-2-en-3-yl]-[4-(3,5-dimethoxy-phenyl)-piperazin-l-yl]-methanone] | – | 5HT-uptake, 10 μM, % inhibition (5HT-uptake): 43%
CN(C)c1cccc(C(=O)N2CCC3(CC2)CC(C(=O)NCCC#N)=NO3)c1 [Example 43, 8-(3-dimethylamino-benzoyl)-1-oxa-2,8-diaza-spiro[4,5]dec-2-ene-3-carboxylic acid (2-cyano-ethyl)-amide] | 41 | –
Cc1ccc(S(=O)(=O)N2CCC3(CC2)CC(C(=O)N2CCN(C(=O)Cc4ccccc4)CC2)=NO3)cc1 [Example 25, 2-phenyl-1-{4-[8-(toluene-4-sulphonyl)-1-oxa-2,8-diaza-spiro[4,5]dec-2-ene-3 carbonyl]-piperazin-1-yl)-ethanone] | 51 | –
O=C(NC1CCCCCCC1)C1=NOC2(CCN(S(=O)(=O)c3ccc(OC(F)(F)F)cc3)CC2)C1 [Example 86, 8-(4-trifluoromethoxy-benzenesulphonyl)-1-oxa-2,8-diaza-spiro[4,5]dec-2-ene-3-carboxylic acid cyclooctylamide] | 46 | –
O=C(C1=NOC2(CCN(S(=O)(=O)c3cccc(C(F)(F)F)c3)CC2)C1)N1CCN(CCCc2ccccc2)CC1 [Example 83, [4-(3-phenyl-propyl)-piperazin-1-yl]-[8-(3-trifluoromethyl-benzenesulphonyl)-1-oxa-2,8-diaza-spiro[4,5]dec-2-en-3-yl]-methanone] | 52 | –
Cc1ccc([N+](=O)[O-])cc1S(=O)(=O)N1CCC2(CC1)CC(C(=O)NCCN(C)C)=NO2 [Example 19, 8-(2-methyl-5-nitro-benzenesulphonyl)-1-oxa-2,8-diaza-spiro[4,5]dec-2-ene-3 carboxylic acid (2-dimethylamino-ethyl)-amide] | 80 | –
O=C(C1=NOC2(CCN(S(=O)(=O)c3ccc(Cl)s3)CC2)C1)N1CCN(c2ccc(F)cc2)CC1 [Example 91, [8-(5-chloro-thiophene-2-sulphonyl)-1-oxa-2,8-diaza-spiro[4,5]dec-2-en-3-yl]-[4-(4-fluorophenyl)-piperazin-1-yl]-methanone] | 45 | –
O=C(NCc1cc(F)cc(C(F)(F)F)c1)C1=NOC2(CCN(S(=O)(=O)c3cc(Cl)ccc3Cl)CC2)C1 [Example 39, 8-(2,5-dichloro-benzenesulphonyl)-1-oxa-2,8-diaza-spiro[4,5]dec-2-ene-3-carboxylic acid 3-fluoro-5-trifluoromethyl-benzylamide] | 65 | –
Cc1ccc(S(=O)(=O)NC(Cc2ccccc2)C(=O)N2CCC3(CC2)CC(C(=O)NCCC#N)=NO3)cc1 (stereo not drawn) [Example 41, 8-[3-phenyl-2-(toluene-4-sulphonylamino)-propionyl]-1-oxa-2,8-diaza-spiro[4,5]dec-2-ene-3-carboxylic acid (2-cyano-ethyl)-amide] | 70 | –

Compound | inhibition at 10 µM (5HT-uptake) [%] | also measured
Cc1ccc(S(=O)(=O)N2CCC3(CC2)CC(C(=O)NCCN(C)C)=NO3)cc1 [Example 57, 8-(toluene-4-sulphonyl)-1-oxa-2,8-diaza-spiro[4,5]dec-2-ene-3-carboxylic acid (2-dimethylamino-ethyl)-amide] | 41 | –
O=C(Nc1ccc2ccccc2c1)C1=NOC2(CCN(S(=O)(=O)c3ccc(OC(F)(F)F)cc3)CC2)C1 [Example 54, 8-(4-trifluoromethoxy-benzenesulphonyl)-1-oxa-2,8-diaza-spiro[4,5]dec-2-ene-3-carboxylic acid naphthalen-2-ylamide] | 43 | –
N#CCCN(CC1CCCO1)C(=O)C1=NOC2(CCN(S(=O)(=O)c3cc(Cl)ccc3Cl)CC2)C1 (stereo not drawn) [Example 100] | – | 5HT-uptake, 10 μM, % inhibition (5HT-uptake): 43%
O=C(NC(c1ccccc1)c1ccccc1)C1=NOC2(CCN(S(=O)(=O)c3ccc(Cl)s3)CC2)C1 [Example 40, 8-(5-chloro-thiophene-2-sulphonyl)-1-oxa-2,8-diaza-spiro[4,5]dec-2-ene-3 carboxylic acid benzhydryl-amide] | 45 | –
CCCS(=O)(=O)N1CCC2(CC1)CC(C(=O)NCC(C)C)=NO2 [Example 82, 8-(propane-1-sulphonyl)-1-oxa-2,8-diaza-spiro[4,5]dec-2-ene-3-carboxylic acid isobutyl-amide] | 42 | –
CCc1ccc(C(=O)N2CCC3(CC2)CC(C(=O)NCc2cccs2)=NO3)cc1 [Example 52, 8-(4-ethyl-benzoyl)-1-oxa-2,8-diaza-spiro[4,5]dec-2-ene-3-carboxylic acid (thiophen-2-ylmethyl)-amide] | 60 | –
CCOC(=O)N1CCC(NC(=O)C2=NOC3(CCN(S(=O)(=O)c4cc([N+](=O)[O-])ccc4C)CC3)C2)CC1 [Example 90, 4-{[8-(2-methyl-5-nitro-benzenesulphonyl)-1-oxa-2,8-diaza-spiro[4,5]dec-2-ene-3-carbonyl]-amino}-piperidine-1-carboxylic acid ethyl ester] | 48 | –
O=C(C1=NOC2(CCN(S(=O)(=O)c3cc(Cl)ccc3Cl)CC2)C1)N1CCN(c2ncnc3sccc23)CC1 [Example 29] | – | 5HT-uptake, 10 μM, % inhibition (5HT-uptake): 42%
Cc1cnc(C(=O)N2CCN(C(=O)C3=NOC4(CCN(S(=O)(=O)c5ccc(F)cc5)CC4)C3)CC2)cn1 [Example 76, [8-(4-fluoro-benzenesulphonyl)-1-oxa-2,8-diaza-spiro[4,5]dec-2-ene-3-yl]-[4-(5-methyl-pyrazine-2-carbonyl)-piperazin-1-yl]-methanone] | 42 | –
O=C(NCC1CC1)C1=NOC2(CCN(C(=O)c3cccc(Cl)c3Cl)CC2)C1 [Example 157, 8-(2,3-dichloro-benzoyl)-1-oxa-2,8-diaza-spiro[4,5]dec-2-ene-3-carboxylic acid cyclopropylmethyl-amide] | 52 | –
CCOP(=O)(Cc1ccc(NC(=O)C2=NOC3(CCN(S(=O)(=O)Cc4ccccc4)CC3)C2)cc1)OCC [Example 2] | – | 5HT-uptake, 10 μM, % inhibition (5HT-uptake): 55%
O=C(C1=NOC2(CCN(S(=O)(=O)c3cc(Cl)ccc3Cl)CC2)C1)N1CCN(Cc2ccccc2)CC1 [Example 209, (4-benzyl-piperazin-l-yl)-[8-(2,5-dichloro-benzenesulphonyl)-1-oxa-2,8-diaza-spiro[4,5]dec-2-en-3-yl]-methanone] | – | NA-uptake, 10 μM, % inhibition (NA transporter): 51%
O=C(NCc1ccncc1)C1=NOC2(CCN(C(=O)c3ccc(OC(F)(F)F)cc3)CC2)C1 [Example 187, 8-(4-trifluoromethoxy-benzoyl)-1-oxa-2,8-diaza-spiro[4,5]dec-2-ene-3-carboxylic acid (pyridin-4-ylmethyl)-amide] | – | inhibition at 10 µM (NA transporter): 44%
O=C(C1=NOC2(CCN(S(=O)(=O)c3cc(Cl)ccc3Cl)CC2)C1)N(CCc1ccccc1)Cc1ccccc1 [Example 98, 8-(2,5-dichloro-benzenesulphonyl)-1-oxa-2,8-diaza-spiro[4,5]dec-2-ene-3-carboxylic acid benzyl-phenethyl-amide] | – | inhibition at 10 µM (NA transporter): 82%
CC(C)CC(NC(=O)C1=NOC2(CCN(S(=O)(=O)c3cccc(C(F)(F)F)c3)CC2)C1)C(=O)OC(C)(C)C (stereo not drawn) [Example 214, 4-methyl-2-{[8-(3-trifluoromethyl-benzenesulphonyl)-1-oxa-2,8-diaza-spiro[4,5]dec-2-ene-3-carbonyl]-amino}-pentanoic acid tert-butyl ester] | – | inhibition at 10 µM (NA transporter): 45%
CCSc1ncccc1C(=O)N1CCC2(CC1)CC(C(=O)NCc1ccccc1)=NO2 [Example 115, 8-(2-ethylsulphanyl-pyridine-3-carbonyl)-1-oxa-2,8-diaza-spiro[4,5]dec-2-ene-3-carboxylic acid benzylamide] | – | inhibition at 10 µM (NA transporter): 55%
